Several values for one entry are separate records, joined by “and”; a condition that tells them apart may be missing. Identical values can stand only once. Marks after values point to notes of the source that are not given here.
Assays:
Sprague-Dawley rats = experiment: Survival after whole body single-dose X-ray irradiation (9 Gy); assay type: in vivo, rat; details: for survival rate versus XRT alone: pre-treated before XRT
Source text: This Example describes a study observing the survival of rats receiving whole body, single-dose irradiation by X-rays (XRT) in the presence or absence of NAC or NAC amide (TOVA). In this experiment, thirty-nine female Sprague-Dawley rats ranging from about 150-200 g were subjected to total body, single-dose X-ray irradiation (9 Gy, 16 Mev). The same groups were designated to receive either NAC or TOVA. For the pre-treatment groups (n=6 in each group), the first treatment of NAC or TOVA was administered 30 minutes to 1 hour before irradiation. For the post-pretreatment groups (n=6 in each group), the first treatment of NAC or TOVA was administered 30 minutes to 1 hour after the irradiation. For groups receiving NAC or TOVA, the same amount (500 mg/kg NAC or TOVA daily) was administered for 4 or 5 consecutive days.
Group 1 was a control group (n=3), where rats received the same amount of saline solution daily for 5 consecutive days without XRT. Group 2 rats received NAC only (n=3) at an amount of 500 mg/kg body weight NAC daily for 5 consecutive days without XRT. Group 3 rats received TOVA only (n=3) at an amount of 500 mg/kg body weight TOVA daily for 5 consecutive days without XRT. Group 4 rats received radiation (XRT) only (n=6) and received the same amount of saline solution daily for 5 consecutive days after single dose total-body XRT irradiation.
Group 5 rats received one treatment of NAC at 500 mg/kg body weight before XRT (XRT+NAC pre-treated), which was then followed by 500 mg/kg body weight NAC daily for 4 consecutive days after XRT. Group 6 rats received XRT, followed by daily doses of NAC at 500 mg/kg body weight for 5 consecutive days after XRT (XRT+NAC post-treated). Group 7 rats […] at 500 mg/kg body weight before XRT (XRT+TOVA pre-treated), which was then followed by 500 mg/kg body weight TOVA daily for 4 consecutive days after XRT. Group 8 rats received XRT, followed by daily doses of TOVA at 500 mg/kg body weight for 5 consecutive days after XRT (XRT+TOVA post-treated). All rats were then given a normal diet post-treatment.
The rats were observed twice a day, and the survival status of rats in each group will be recorded. The mean survival days were calculated for each group and compared to the survival differences of the three groups of rats at the end of the experiment. The radioprotective effects of NAC and TOVA treatment on the survival of those irradiated rats were then evaluated, as shown in the following tables.

Sprague Dawley rats = experiment: MDA levels in tissues after 6Gy total-body x-ray radiation; assay type: in vivo, rat; details: for MDA level / MDA Mean: 6Gy total-body x-ray, 500 mg/kg orally; for MDA level: individual animals; for MDA Mean: n = 3; for lung MDA levels: treatment concurrent with irradiation, versus irradiation alone
Experimental: Animal studies: The irradiation of rats was performed at the Radiation Oncology Department of the Phelps County Regional Medical Center in Rolla, Mo., using a 16 MeV beam generated by a Varian linear accelerator, model Clinac 1800, and in accordance with the standards of humane laboratory animal protocols. A 20×20 or 25×25 cm field was used and output factors were checked once a week. Twelve animals were divided into 4 groups each containing 3 animals (Control, XRT, NAC amide+XRT and NAC+XRT). The radiation (XRT) control received whole body irradiation by 6 Gy of 16 MeV electrons. The NAC amide+XRT group received 500 mg/kg/day NAC amide immediately before irradiation and for three days after until sacrifice. The rats were anesthetized and heparinized blood was collected via cardiopuncture. Following sacrifice, liver, lung, brain and spleen were removed and stored at −70° C. until homogenization.
All experiments were performed using adult Albino SASCO Sprague Dawley female rats weighing about 250 g, which were purchased from Charles River Laboratories Inc. (Portage, Mich.). Twelve rats were shipped in paper crates (4 in each crate). Rats were delivered with a certificate including serological, bacteriological, pathological parasitological information. They were divided into 4 cages (3 rats in each cage) and kept in a temperature controlled (20° C.) room equipped to maintain a 12 h light-dark cycle. Standard rat chow (Purina rat chow) and tap water were supplied in individual glass bottle and given ad libitum. Water was changed daily. Weights of the animal were taken before giving the NAC amide treatment solution and amount of food eaten and water consumed was not measured because NAC amide was given orally but not in the drinking water or food.
NAC amide was provided by Novetide Ltd (Haifa Bay, Israel) including certificate of analysis and MSDS (lot #40233-64). NAC amide feeding solution was prepared freshly each day right before the administration by weighing 1.25 g NAC amide solid sample (Type HR-120 electronic balance, A&D Company limited, Japan. S/N: 12202464) and adding into 10 ml PBS solution and put on ice. One ml of this solution was administrated (gavaged) per rat orally by using animal feeding biomedical needles and 3 ml BD Luer-Lok Tip syringes. Rats received one-dose total-body 6 Gy/16 MeV x-ray radiation and 3 rats in each group were held in a covered bucket and received radiation at the same time. Each day at the same time, 500 mg/Kg body weight of NAC amide was administrated to the animals.
For MDA levels, 350 μL tissue homogenate was used to react with 100 μL of 500 ppm BHT solution and 550 μL solution of 10% TCA solution, therefore, the total volume here was 1000 μL. After boiling the whole solution, 500 μL was taken out and react with 500 μL TBA and the total volume here was 1000 μL also.
Glutathione (GSH) and Glutathione Disulfide (GSSG) Determination: Cells or tissue samples were homogenized on ice and derivatized with N-(1-pyrenyl)-maleimide (NPM). The derivatized samples were injected onto a 3 μm C18 column (Column Engineering) in a reverse phase HPLC system with a mobile phase of 35% water, 65% acetonitrile containing 1 mL/L of acetic acid and o-phosphoric acid (R. Winters, et al., Anal. Biochem., 227:14-21 (1995) and H. H. Draper et al., Free Rad. Biol. Med., 15:353-363 (1993)). Malondialdehyde (MDA) determinations were made as described in J. Gutteridge, Anal. Biochem., 69: 518-526 (1975).

[1] = Table 15, XRT 9 Gy, post-treated
[2] = Table 15, XRT 9 Gy, pre-treated
[3] = Table 15, compound only, no XRT
[4] = Table 16, XRT 9 Gy, post-treated
[5] = Table 16, XRT 9 Gy, pre-treated
[6] = Table 16, compound only, no XRT
[7] = XRT 9 Gy, post-treated, 500 mg/kg daily, n = 6, 2nd time
[8] = XRT 9 Gy, pre-treated, 500 mg/kg daily, n = 6, 1st time
[9] = XRT 9 Gy, pre-treated, 500 mg/kg daily, n = 6, 2nd time
[10] = compound only, no XRT, 500 mg/kg daily 5 days, 2nd time

Compound	percentage survival rate (Sprague-Dawley rats; [1]) [%]	percentage survival rate (Sprague-Dawley rats; [2]) [%]	percentage survival rate (Sprague-Dawley rats; [3]) [%]	percentage survival rate (Sprague-Dawley rats; [4]) [%]	percentage survival rate (Sprague-Dawley rats; [5]) [%]	percentage survival rate (Sprague-Dawley rats; [6]) [%]	# of animals dead (Sprague-Dawley rats; [7])	# of animals survived (Sprague-Dawley rats; [7])	# of animals dead (Sprague-Dawley rats; [8])	# of animals survived (Sprague-Dawley rats; [8])	# of animals dead (Sprague-Dawley rats; [9])	# of animals survived (Sprague-Dawley rats; [9])	# of animals dead (Sprague-Dawley rats; [10])	# of animals survived (Sprague-Dawley rats; [10])	survival rate versus XRT alone (Sprague-Dawley rats)	MDA Mean (Sprague Dawley rats; BRAIN) [nmol/100 mg]	MDA Mean (Sprague Dawley rats; KIDNEY)	MDA Mean (Sprague Dawley rats; LIVER)	MDA Mean (Sprague Dawley rats; LUNG)	lung MDA levels (Sprague Dawley rats)	also measured
CC(=O)N[C@@H](CS)C(=O)O [NAC, N-acetylcysteine]	33.3	83.3	100	33.3	83.3	100	4	2	1	5	1	5	0	2	higher survival rate	6.15	1.65** nmol/100 mg	5.07**/*** nmol/100 mg	2.52** nmol/100 mg	did not change the MDA levels significantly	MDA level (Sprague Dawley rats; BRAIN, 500 mg/kg): 6.42 nmol/100 mg and 6.69 nmol/100 mg and 5.33 nmol/100 mg; MDA level (Sprague Dawley rats; KIDNEY, 500 mg/kg): 1.76 nmol/100 mg and 1.78 nmol/100 mg and 1.41 nmol/100 mg; MDA level (Sprague Dawley rats; LIVER, 500 mg/kg): 5.1 nmol/100 mg (2×) and 5.02 nmol/100 mg; MDA level (Sprague Dawley rats; LUNG, 500 mg/kg): 2.58 nmol/100 mg and 2.34 nmol/100 mg and 2.63 nmol/100 mg
N-acetylcysteine amide [NAC amide]	66.7	100	100	66.7	100	100	2	4	0	6	0	6	0	3	higher survival rate	5.48	1.64** nmol/100 mg	4.38** nmol/100 mg	1.53** nmol/100 mg	significantly lowered	MDA level (Sprague Dawley rats; BRAIN, listed as AD4, 500 mg/kg): 5.79 nmol/100 mg and 5.53 nmol/100 mg and 5.13 nmol/100 mg; MDA level (Sprague Dawley rats; KIDNEY, listed as AD4, 500 mg/kg): 1.96 nmol/100 mg and 1.45 nmol/100 mg; MDA level (Sprague Dawley rats; KIDNEY, listed as AL4, 500 mg/kg): 1.5 nmol/100 mg; MDA level (Sprague Dawley rats; LIVER, listed as AD4, 500 mg/kg): 4.14 nmol/100 mg and 4.65 nmol/100 mg and 4.36 nmol/100 mg; MDA level (Sprague Dawley rats; LUNG, listed as AD4, 500 mg/kg): 1.72 nmol/100 mg and 1.58 nmol/100 mg and 1.28 nmol/100 mg
